Experimental data reported in ChEMBL document CHEMBL5029143, “Discovery of New Potent Positive Allosteric Modulators of Dopamine D2 Receptors: Insights into the Bioisosteric Replacement of Proline to 3-Furoic Acid in the Melanostatin Neuropeptide” (J Med Chem, 2021).
Residues, ends and D or L forms follow the SMILES beside them.

Columns and labels:
[1] = Neurotoxicity in human SH-SY5Y cells assessed as reduction in cell viability at 200 uM measured after 48 hrs by MTT reduction assay (Rvb= 100 +/- 2.79%); format: cell-based; details: read-out: Activity
[2] = biological target: D(2) dopamine receptor (Homo sapiens) (UniProt P14416); details: CHO, filed as positive allosteric modulator, dose 0.01 nM, time 10.0 min
[3] = Neurotoxicity in human SH-SY5Y cells assessed as reduction in cell viability at 100 uM measured after 48 hrs by MTT reduction assay (Rvb= 100 +/- 2.79%); format: cell-based; details: read-out: Activity
SH-SY5Y = experiment: Cytotoxicity against human differentiated SH-SY5Y cells assessed as reduction in cell viability at 100 uM measured after 48 hrs by phase contrast microscopic analysis; format: cell-based

D(2) dopamine receptor (Homo sapiens), sequence (P14416 whole entry): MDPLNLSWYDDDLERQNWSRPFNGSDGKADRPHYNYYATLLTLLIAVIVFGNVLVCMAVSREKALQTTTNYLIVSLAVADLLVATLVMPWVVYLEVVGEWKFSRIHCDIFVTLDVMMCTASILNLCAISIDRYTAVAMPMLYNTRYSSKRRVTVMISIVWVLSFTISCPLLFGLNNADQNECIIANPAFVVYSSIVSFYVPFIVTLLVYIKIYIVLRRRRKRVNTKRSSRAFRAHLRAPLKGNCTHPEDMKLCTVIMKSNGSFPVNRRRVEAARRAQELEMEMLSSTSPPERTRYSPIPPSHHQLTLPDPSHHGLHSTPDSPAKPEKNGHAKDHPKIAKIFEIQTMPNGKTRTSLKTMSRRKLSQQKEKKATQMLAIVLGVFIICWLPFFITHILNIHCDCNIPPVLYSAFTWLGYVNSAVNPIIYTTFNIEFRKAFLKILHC

For `CC(C)C[C@H](NC(=O)c1ccoc1)C(=O)NCC(N)=O`, the viability at 48 h, 200 µM [1] was 86%.

In the case of `CC(C)C[C@H](NC(=O)[C@@H]1CCCN1)C(=O)NCC(N)=O` (H-Pro-Leu-Gly-NH2), the Emax [2] is reported as 93.6%.

With `NCCc1ccc(O)c(O)c1` [DOPAMINE] the viability at 48 h, 200 µM [1] was 66.4% and the viability at 48 h, 100 µM [3] was 96.9%.

In the case of `NCCc1cc(O)c(O)cc1O` [OXIDOPAMINE], the viability at 48 h, 200 µM [1] is reported as 4.06%, the viability at 48 h, 100 µM [3] is reported as 48.6% and the Activity (SH-SY5Y) is reported as “Toxic”.
